One compound from patent US12377095B2, “Use of ligustrazine nitrone derivatives in treatment and prevention of diabetic complication diseases” (QINGDAO HAILAN PHARMACEUTICALS CO., LTD., priority 2019, dated 2025) can be followed below.

The subject of one assay is db/db mice. Description: Electron microscopy of kidney tissue in db/db mice. The class given is in vivo, mouse. An excerpt: db/db mice are congenital obese type 2 DKD mice with spontaneous mutations in the leptin receptor (Leptin receptor, Lepr) due to a point mutation in the leptin receptor gene GT located on chromosome 4. The course of polyphagia, polyuria, diabetes and hyperglycemia is similar to that of humans, and it is currently the most widely used type 2 spontaneous animal model of DKD. The db/db mice have a series of complications with the aggravation of diabetes. The main pathological changes of renal tissue are the expansion of the glomerular mesangial interstitium, the thickening of the glomerular basement membrane, and the excessive accumulation of extracellular matrix. However, the glomerular mesangium of db/db mice changes relatively slowly, and the glomerular mesangium will not be dissolved or nodular glomerulosclerosis, and there is no progressive renal insufficiency.
Six-week-old db/db mice were purchased, and start the administration after adaptive feeding for 1 week (i.e., 7-week-old). TBN is administered twice a day (fixed by starting from 9:00-10:00 am and 3:00-4:00 pm, with an interval of 6 hours), and the positive control drug Losartan was administered once a day (fixed at 9:00-10:00 am) for 6 weeks.
After the mice were executed, the renal cortex was quickly taken with sharp blade (performed on ice); fixed with 2.5% glutaraldehyde (pH 7.4) at 4° C. for 6 h; then fixed for 2 h in a stationary liquid having 1:1 of 0.2 mmol/L PBS and 2% osmic acid, and dehydrated with gradient acetone at 4° C., 10 min for each of 50%, 70%, 90% acetone, then dehydrated with 100% acetone at room temperature twice, each time 15 min; in 1:1 acetone and Epon812 epoxy resin embedded mixed liquid, soaked at room temperature for 30 min; then dipped through the pure furnishings overnight, the embedding agent was made enveloping into tissue blocks completely to replace the dehydrating agent; the samples were embedded in the embedder for ultra-thin slicing, placed at 35° C. for 12 h; placed at 45° C. for 12 h; placed at 60° C. for 48 h; placed in a 37° C. oven for 36 h, in a 60° C. oven for 36 h; 1.5 μm semi-slice was prepared with an ultra-thin slicer; positioning under optical microscope, a trapeter having a top area of about 1 mm^2 was shaped to prepare 60-70 nm thick ultra-thin slices; dyed in dark with acetate hydroxide liquid for 10 min, and dyed in lead-stained citrate for 10 min.

A further assay has as its system STZ-induced DKD rats. The experiment in a line: Serum biochemical parameters of STZ-induced DKD rats. Type of assay: in vivo, rat. The note with it: six weeks after administration, dose-dependent. Here is the method:
SD rats (200±10 g) were used as model animals, which were fasted for 12 h before injection. STZ was dissolved in citrate buffer at 1% concentration, and rats were fasted and intraperitoneally injected with 55 mg/kg STZ and placed in the cage, the rats being ensured with adequate water intake for 24 h. STZ injections need to be fast and complete within 10 minutes of injection. The normal control group was injected with an equal volume of pH 4.5 citric acid-sodium citrate buffer. The state of the animals (multiple drinking and polyuria) was observed. After 3 weeks of STZ injection, blood was collected from the tail vein, and fasting blood glucose ≥16.7 mmol/L was measured as the standard for diabetic nephropathy in rats.
DKD rats were randomly assigned to 6 groups and given with different drugs. After 6 weeks of administration, the experiment was terminated and the protective effect of the drug on DKD rats was observed.
Six weeks after the administration, the rats were anesthetized, and the blood was taken from the abdominal aorta, and, after standing for 1 hour, was centrifuged at 3000 rmp for 10 min and stored at −70° C. Serum levels of creatinine, urea nitrogen, cholesterol and triglycerides were measured using an automated biochemical analyzer.

With `Cc1nc(C)c(/C=[N+](\[O-])C(C)(C)C)nc1C` [TBN], in the assay on db/db mice (10 mg/kg), the podocyte fusion entry was “slight podocyte fusion” and the “proliferation of the glomerular membrane” value is given as “no significant proliferation”. For the same compound, the “thickness of the glomerular base film” value in the assay with db/db mice (10 mg/kg, 6 weeks (TBN P<0.05; Losartan P<0.01)) was “decrease”. For the same compound, in the assay on db/db mice (30 mg/kg), the podocyte fusion entry is on record as “podocyte fusion in small area” and the “proliferation of the glomerular measuring membrane” value is reported as “no significant proliferation”. Further, in the assay on db/db mice (30 mg/kg, P<0.01 vs db/db), the “thickness of the glomerular base film” value is reported as “significantly reduced”. Also, in the assay on db/db mice (60 mg/kg), the podocyte fusion result is “no obvious segmental fusion” and the “proliferation of glomerular membranes” value was “no significant proliferation”. In addition, in the assay on db/db mice (60 mg/kg, P<0.01 vs db/db), the “thickness of the glomerular base film” value is on record as “significantly reduced”. Besides, in the assay on STZ-induced DKD rats, the serum cholesterol entry is given as “significantly reduce”, the serum creatinine result was “significantly reduce”, the serum triglyceride entry is on record as “significantly reduce” and the serum urea nitrogen result was “significantly reduce”.
